# Experimental data reported in patent publication US5908841A, “5,11-dihydro-6H-dipyrido[3,2-b:2',3'-e]azepine-6-ones and their use in the prevention of treatment of HIV infection” (priority 1998, dated 1999).
# Biological target: T1, HIV-1 reverse transcriptase, wild type (WT) (Human immunodeficiency virus type 1 group M subtype B, UniProt P03367)
# T1 construct: Reverse transcriptase enzyme from the LAV strain of Human Immunodeficiency Virus (HIV-1); made in house; host or cells: Escherichia coli JM109 (clone pBRTprtl+ in vector pIBI21)
# Assay: Reverse Transcriptase Assay, wild type (WT) enzyme (RNA-dependent DNA polymerase activity; poly r(C)/oligo d(G), 3H-dGTP)
# Assay type: biochemical, HIV-1 (LAV strain)
# Details: wild type (WT) RT
# Text: Utilizing the Reverse Transcriptase (RT) Assay described below, compounds can be tested for their ability to inhibit the RNA-dependent DNA polymerase activity of HIV-1 RT. Certain specific compounds described in the Examples which appear below, were so tested.
# Among the enzymes for which Human Immunodeficiency Virus (HIV-1) encodes is a reverse transcriptase (1), so-named because it transcribes a DNA copy from an RNA template. This activity can be quantitatively measured in a cell-free enzyme assay, which has been previously described (2), and is based upon the observation that reverse transcriptase is able to use a synthetic template [poly r(C) primed with oligo d(G)] to transcribe a radio-labelled, acid-precipitable DNA strand utilizing ^3 H-dGTP as a substrate. The assay described below utilizes the wild type (WT) enzyme, which is the predominant form of the enzyme observed in patients infected with HIV-1. Utilization of mutant RT enzymes (Y181C and Y181L, prepared by site-directed mutagenesis in which the tyrosine residue at codon 181 has been replaced by a cysteine or a leucine residue, respectively) and analogous assay conditions allows compounds to be evaluated for their effectiveness at inhibiting these mutant enzymes.
# a) Preparation of the wild type enzyme Reverse transcriptase enzyme from the LAV strain of Human Immunodeficiency Virus (HIV-1) (1) was isolated from the bacterial strain JM109 (3) expressing the DNA clone pBRTprtl+ (2) which is under the control of the lac promotor in the expression vector pIBI21 (4). An overnight culture grown in 2XYT medium (37° C., 225 rpm) (5) supplemented with 100 μg/mL ampicillin for positive selection is inoculated at a 1:40 dilution into M9 medium supplemented with 10 μg/mL thiamine, 0.5% casamino acids, and 50 μg/mL ampicillin (5). The culture is incubated (37° C., 225 rpm) until it reaches an OD540 of 0.3-0.4. At that time the repressor inhibitor IPTG (isopropyl β-D-thiogalactopyranoside) is added to 0.5 mM, and the mixture is incubated for 2 additional hours. Bacteria are pelleted, resuspended in a 50 mM Tris, 0.6 mM EDTA, 0.375M NaCl buffer and digested by the addition of lysozyme (1 mg/mL) for 30 minutes on ice. The cells are lysed by the addition of 0.2% NP-40 and brought to 1M NaCl.
# After removal of the insoluble debris by centrifugation, the protein is precipitated by the addition of 3 volumes of saturated aqueous ammonium sulfate. The enzyme is pelleted, resuspended in RT buffer (50 mM Tris pH 7.5, 1 mM EDTA, 5 mM DTT, 0.1% NP-40, 0.1M NaCl, and 50% glycerol), and stored at -70° C. for further use.
# b) Composition of 2× concentrated stock reaction mixture
# [poly r(C)/oligo d(G)] (5:1)
# The 2× concentrated stock reaction mixture is aliquoted and stored at -20° C. The mixture is stable and thawed for use in each assay. This enzyme assay has been adapted to a 96 well microtiter plate system, and has been previously described (6). Tris buffer (50 mM, pH 7.4), vehicle (solvent diluted to match the compound dilution), or compounds in vehicle are dispensed into 96-well microtiter plates (10 μL/well; 3 wells/compound). The HIV-1 RT enzyme is thawed, diluted in 50 mM Tris pH 7.4 so that fifteen μL of diluted enzyme contain 0.001 Unit (one unit is that amount of enzyme to transform 1 micromole of substrate per minute at 25° C.), and fifteen μL are dispensed per well. Twenty μL of 0.12-0.5M EDTA are added to the first three wells of the microtiter plate. EDTA chelates the Mg^++ present and prevents reverse transcription. This group serves as background polymerization which is subtracted from all other groups. Twenty-five μl of the 2× reaction mixture are added to all wells and the assay is allowed to incubate at room temperature for 60 minutes. The assay is terminated by precipitating the DNA in each well with 50 μL of 10% trichloracetic acid (TCA) (10% w/v) in sodium pyrophosphate (1% w/v). […]
row,SMILES,inhibition at 1 µM
1,"CCC1c2ncccc2N(C)C(=O)c2ccc[n+]([O-])c21 (stereo not shown) [Example 1, 5,11-Dihydro-11-ethyl-5-methyl-10-oxo-6H-dipyrido[3,2-b:2',3'-e]azepin-6-on]",68%
2,"CCC1c2ncccc2C(=O)N(C)c2cccnc21 (stereo not shown) [Example 2, 5,11-Dihydro-11-ethyl-5-methyldipyrido[3,2-b:2',3'-e]azepine-6-one]",62%
3,"CCCC1c2ncccc2C(=O)N(C)c2cccnc21 (stereo not shown) [Example 3, 5,11-Dihydro-11-propyl-5-methyldipyrido[3,2-b:2',3'-e]azepine-6-one]",64%
4,"CCC1(C)c2ncccc2C(=O)N(C)c2cccnc21 (stereo not shown) [Example 4, 5,11-Dihydro-11-ethyl-11-methyl-5-methyldipyrido[3,2-b:2',3'-e]azepine-6-one]",68%
5,"CCC1(CC)c2ncccc2C(=O)N(C)c2cccnc21 [Example 5, 5,11-Dihydro-11-diethyl-5-methyldipyrido[3,2-b:2',3'-e]azepine-6-one]",62%
6,"CN1C(=O)c2cccnc2C2(CCCC2)c2ncccc21 [Example 6, 5,11-Dihydro-11-spirocyclopentyl-5-methyldipyrido[3,2-b:2',3'-e]azepine-6-one]",62%
7,"CCC1c2nc(OC)ccc2N(C)C(=O)c2ccc[n+]([O-])c21 (stereo not shown) [Example 7, 5,11-Dihydro-11-ethyl-2-methoxy-5-methyl-10-oxodipyrido[3,2-b:2',3'-e]azepine-6-one]",75%
8,"CCC1c2ncccc2C(=O)N(C)c2ccc(OC)nc21 (stereo not shown) [Example 8, 5,11-Dihydro-11-ethyl-2-methoxy-5-methyl-dipyrido[3,2-b:2',3'-e]azepine-6-one]",84%
9,"CCC1(CC)c2ncccc2C(=O)N(C)c2ccc(OC)nc21 [Example 9, 5,11-Dihydro-11-diethyl-2-methoxy-5-methyl-dipyrido[3,2-b:2',3'-e]azepine-6-one]",66%
10,"COc1ccc2c(n1)C(SC)c1c(ccc[n+]1[O-])C(=O)N2C (stereo not shown) [Example 10, 5,11-Dihydro-11-methylthio-2-methoxy-5-methyl-10-oxodipyrido[3,2-b:2',3'-e]azepine-6-one]",91%
11,"COc1ccc2c(n1)C(SC)c1ncccc1C(=O)N2C (stereo not shown) [Example 11, 5,11-Dihydro-11-methylthio-2-methoxy-5-methyl-dipyrido[3,2-b:2',3'-e]azepine-6-one]",80%
12,"COc1ccc2c(n1)C(C)(SC)c1ncccc1C(=O)N2C (stereo not shown) [Example 12, 5,11-Dihydro-11-methyl-11-methylthio-2-methoxy-5-methyl-dipyrido[3,2-b:2',3'-e]azepine-6-one]",41%
13,"CCC1c2ncccc2C(=O)N(C)c2ccc(-c3cn[nH]c3)nc21 (stereo not shown) [Example 13, 5,11-Dihydro-11-ethyl-2-(4-pyrazolyl)-5-methyl-dipyrido[3,2-b:2',3'-e]azepine-6-one]",80%
